# Assay results from PubChem BioAssay AID686920 (Broad Institute, 2013).
# Values joined by “and” are separate entries in the source; they are usually repeats but may differ in a detail not shown here. Equal entries are not always repeated. Active and inactive are the calls of the source.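 The calls were made as follows: active = fitted curve reaching 35% inhibition at a dose no higher than twice the top valid tested dose; inconclusive = flat fit with 30 to 70% inhibition, or a poor fit; inactive = the rest, including activity in the opposite direction.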
# Test system: A673 NR0B1-luciferase reporter, viability-normalised luminescence
# Assay: suppressors of NR0B1-promoter luciferase reporter, dose response, EWS/Fli inhibitor project, luciferase luminescence, A673 cells, cherry-pick (AID 686920)
row,SMILES,AC35
1,COC(=O)C[C@@H]1CC[C@@H]2[C@H](COc3ccc(NC(=O)c4ccc(C(F)(F)F)cc4)cc3C(=O)N2C)O1,12.1 µM
2,COc1ccc(N=C2C(=O)Nc3ccc(C)c(Br)c32)cc1,10 µM
3,C[C@@H]1CN([C@H](C)CO)C(=O)c2cc(N(C)C)ccc2O[C@H]1CN(C)Cc1ccc(C(=O)Nc2ccccc2N)cc1,9.4 µM
4,CC(=O)OC1CC2(O)C3CCC4CC(O)CCC4(C)C3CCC2(C)C1C1=CC(=O)OC1 (centres undefined),0.231 µM
5,COc1ccc(NC(=O)N2CCCCN3[C@@H](CO)[C@H](c4ccc(C5=CCCCC5)cc4)[C@@H]3C2)cc1,15.8 µM
6,COc1ccc([Si](C)(C)[C@H]2[C@H](CCO)O[C@@]3(C(=O)N(c4ccccc4)c4ccccc43)[C@@H]2C)cc1,7.79 µM
7,CC(C)(C)c1ccc(Oc2ccc(NC(=O)c3ccccc3C(=O)O)cn2)cc1,5.78 µM
8,CC(=O)Nc1cccc(-c2ccnc3c2CC(C)(C(=O)NCc2ccc(N(C)C)cc2)O3)c1 (centres undefined),7.51 µM
9,C[C@H](CO)N1C[C@H](C)[C@H](CN(C)Cc2ccc(C(=O)Nc3ccccc3N)cc2)Oc2ccc(N(C)C)cc2C1=O,11.7 µM
10,C(=Cc1c[nH]c2ccccc12)c1ccc2ccccc2n1,2.22 µM
11,CCCN1C/C(=C/c2ccc3c(c2)OCO3)C(=O)/C(=C/c2ccc3c(c2)OCO3)C1,3.4 µM
12,O=C(NC[C@@H]1N[C@@H](CO)[C@H]1c1ccc(C2=CCCCC2)cc1)c1cccc(F)c1,29.8 µM
13,Cc1cc2c(C(C)C)c(O)c(O)c(C=O)c2c(O)c1-c1c(C)cc2c(C(C)C)c(O)c(O)c(C=O)c2c1O,7.16 µM
14,COc1cccc(OC)c1C(=O)Nc1cc(C)nn1-c1nc2ccccc2[nH]1,26.7 µM
15,COc1ccc(-c2cnc3c(NC=O)cc(-c4ccccc4OC)cn23)cc1OC,0.065 µM
16,COc1ccccc1NC(=O)N1CCCCN2[C@H](CO)[C@H](c3ccc(-c4cccc(C)c4)cc3)[C@H]2C1,8.3 µM
17,COc1cc(C(=O)N2CCC(N3CCN(C)CC3)CC2)ccc1Nc1ncc2c(n1)N(C)c1ccccc1C(=O)N2C,4.75 µM
18,COC(=O)C[C@@H]1CC[C@@H]2[C@H](COc3ccc(NC(=O)c4ccccc4)cc3C(=O)N2C)O1,53.4 µM
19,CCOc1ccc(/C=C2\CCc3ccccc3C2=O)cc1,9.24 µM
20,C[C@@H]1CN([C@H](C)CO)C(=O)c2cc(NC(=O)CCCCCC(=O)Nc3ccccc3N)ccc2O[C@@H]1CN(C)Cc1ccc(Cl)c(Cl)c1,5.24 µM
21,O=C(CCc1ccccc1)NC(c1cccs1)c1cc(Cl)c2cccnc2c1O (centres undefined),5.42 µM
22,O=C(Sc1cccc2cccnc12)c1ccccc1Br,16.6 µM
23,OC[C@H]1O[C@@H](n2cnc3c(NCc4ccco4)ncnc32)[C@H](O)[C@@H]1O,4.99 µM
24,O=C(O)c1ccc(N/N=C/c2c[nH]c3ccccc23)cc1,8.82 µM

row,SMILES,AC35
1,Cc1c(Cl)cccc1NC(=O)CCC(=O)N/N=C/c1ccc[nH]1,4.78 µM
2,C=C(C(=O)c1ccccc1)C(C(=C)C(=O)c1ccccc1)c1ccc(OC)cc1,4.37 µM
3,C[C@@H]1CN([C@@H](C)CO)C(=O)c2cc(N(C)C)ccc2O[C@H]1CN(C)Cc1ccc(C(=O)Nc2ccccc2N)cc1,12.7 µM
4,O=C1Nc2ccccc2C1=Nc1ccccc1-c1ccccc1,11.4 µM
5,COc1ccc(OC)c(-c2nnc3n2N=C(c2ccc(OC)c(OC4CCOC4)c2)CS3)c1 (centres undefined),6.56 µM
6,O=C(NCc1cccnc1)C1Cc2c(-c3ccc(Cl)cc3)ccnc2O1 (centres undefined),6.04 µM
7,COC(=O)Cc1ccc(NC(=O)c2ccccc2Cl)cc1,2.6 µM
8,CC(=O)N1CCCC(c2cc(C(=O)Nc3ccccc3)no2)C1 (centres undefined),2.06 µM
9,Cc1c(Cl)cnc(NC(=O)COC(=O)c2ccc3ncsc3c2)c1Cl,7.23 µM
10,C[C@H]1CN([C@@H](C)CO)C(=O)c2cc(N(C)C)ccc2O[C@H]1CN(C)Cc1ccc(C(=O)Nc2ccccc2N)cc1,15 µM
11,COc1ccc(N=C(NN)c2ccc3ccccc3n2)cc1,21.8 µM
12,C#CCOCCOCCOCCNc1nc(N2CCN(C(=O)CCCCCCCCCCNC(=O)Cn3cc(C[C@@H](C)O)nn3)CC2)nc(N2CCN(C(=O)CCCCCCCCCCNC(=O)[C@H](CO)n3cc(CCCSC)nn3)CC2)n1,9.81 µM
13,C[C@H]1O[C@@H](O[C@H]2[C@@H](O)C[C@H](O[C@H]3[C@@H](O)C[C@H](O[C@H]4CC[C@@]5(C)[C@H](CC[C@@H]6[C@@H]5C[C@@H](O)[C@]5(C)[C@@H](C7=CC(=O)OC7)CC[C@]65O)C4)O[C@@H]3C)O[C@@H]2C)C[C@H](O)[C@@H]1O,0.0886 µM
14,C[C@@H]1CN([C@H](C)CO)C(=O)Cc2cc(NC(=O)CCCCCC(=O)Nc3ccccc3N)ccc2O[C@@H]1CN(C)CC1CCCCC1,7.74 µM
15,O=C(C[C@H]1C[C@H]2c3cc(NS(=O)(=O)c4ccc(F)cc4)ccc3O[C@H]2[C@H](CO)O1)NCc1ccc(Oc2ccccc2)cc1,6.22 µM
16,CN(C)CC1CCC/C(=C\c2ccc(OC(=O)c3ccc(Cl)cc3)cc2)C1=O (centres undefined),5.76 µM
17,Nc1sc(-c2ccccc2)cc1-c1n[nH]c(=S)n1C1CCCCC1,3.67 µM
18,CCN(CC)C(=O)CN1C(=O)C(=O)c2ccccc21,42 µM
19,Cc1ccc(C)c(S(=O)(=O)N2CCN(c3ncnc4sccc34)CC2)c1,3.63 µM
20,N#C[C@@H]1[C@H](c2ccc(C#Cc3ccccc3F)cc2)[C@@H](CO)N1C(=O)c1cccnc1,5.46 µM
21,O=C(NC(c1ccc(F)cc1)c1ccc2ccccc2n1)C1CCN(Cc2cccc(C(F)(F)F)c2)CC1 (centres undefined),7.77 µM
22,Cc1ccc(N2C(=O)c3cccc4c(N)ccc(c34)C2=O)c2cccnc12,< 0.03 µM
23,O=C(C[C@@H]1CC[C@@H]2[C@H](COC[C@@H](O)CN2S(=O)(=O)c2ccc(F)cc2)O1)NCc1ccc(Cl)c(Cl)c1,61.8 µM
24,CN(C)c1ncnc2c1ccn2C1OC(CO)C(O)C1O (centres undefined),3.44 µM

row,SMILES,AC35
1,Cc1cc(C)c2sc(NNC(=O)c3ccc(S(=O)(=O)N4CCc5ccccc5C4)cc3)nc2c1,5.12 µM
2,CC(C)c1ccc(OCc2cccc(C(=O)N/N=C/c3cccnc3)c2)cc1,1.03 µM
3,O=C(NCc1ccc(F)cc1)N1[C@H]2CC[C@@H]1C=C(c1ccc(F)cc1OCc1ccccc1)C2,9.93 µM
4,COc1ccc(CC(N)c2csc(NC(=O)Nc3cccc(C(F)(F)F)c3)n2)cc1 (centres undefined),9.72 µM
5,CCc1ccc(/C=C2\SC(=S)N(CCCC(=O)Nc3cc(C)on3)C2=O)cc1,0.947 µM
6,CN(C)c1ccc(N=Nc2ccccc2Br)cc1,21.3 µM
7,Cc1ccc(C(=O)O/N=C(\N)c2ccccn2)cc1,9.92 µM
8,COC(=O)C[C@H]1CC[C@H]2[C@H](COc3ccc(NC(=O)Nc4cccc(Cl)c4)cc3C(=O)N2C)O1,44.1 µM
9,CC(C)CC(NC(=O)c1cccs1)c1nnc(SCc2ccc(Cl)c(Cl)c2)n1C (centres undefined),39.5 µM
10,C[C@H](CO)N1C[C@H](C)[C@@H](CN(C)Cc2ccc(C(F)(F)F)cc2)OCCCC[C@H](C)Oc2ccc(NS(=O)(=O)c3ccc(F)cc3)cc2C1=O,16.6 µM
11,COc1cc(OC)cc(-c2cc3nc(C)c(CCC(=O)O)c(C)n3n2)c1,0.243 µM
12,C[C@@H]1CN([C@@H](C)CO)C(=O)Cc2cc(NC(=O)Nc3ccc(C(F)(F)F)cc3)ccc2O[C@@H]1CN(C)Cc1ccc(C(=O)Nc2ccccc2N)cc1,7.91 µM
13,CCc1ccc(S(=O)(=O)c2ccc(-n3nc(C)cc3N)cc2)cc1,31.4 µM
14,C(=Cc1nc2ccccc2o1)c1ccc2c(c1)OCO2,4.5 µM
15,CCOC(=O)Cc1ccc(NC(=O)c2ccccc2Br)cc1,4.18 µM
16,CCCNC(=O)N1[C@H](C#N)[C@H](c2ccc(C#Cc3cccc(F)c3)cc2)[C@H]1CO,8.47 µM
17,COC(=O)c1ccccc1-c1c2ccc(=N)cc-2oc2cc(N)ccc12,2.83 µM
18,CCCCCCCCCCCCCCCCn1cc[n+](C)c1,10.3 µM
19,COc1cc2c(cc1OC)C(C)N(C(=O)c1cc(Cl)nc(Cl)c1)CC2 (centres undefined),6.06 µM
20,CN(Cc1cnc2nc(N)nc(N)c2n1)c1ccc(C(=O)N[C@@H](CCC(=O)O)C(=O)O)cc1,< 0.03 µM
21,COc1ccc(/C=C/C(=O)c2cc(F)ccc2OC(=O)c2ccccc2OC)cc1OC,1.59 µM
22,Cc1ccccc1NC(=O)C(=Cc1ccc(C(=O)O)cc1)C(=O)Nc1ccccc1C,5.63 µM
23,COc1ccccc1N(/N=C1\Sc2ccccc2C1=O)C(C)=O,23.6 µM
24,Cc1ccc(S(=O)(=O)N(C)C[C@H]2Oc3c(cccc3N(C)C)C(=O)N([C@@H](C)CO)C[C@@H]2C)cc1,1.62 µM

row,SMILES,AC35
1,Cc1ccsc1/C=N/Nc1cccc(C(=O)O)c1,0.832 µM
2,CCCCc1c(Cc2ccccc2)ncn1CCc1ccccc1OC,20.8 µM
3,CN(C)c1ccc(C=c2c3ccccc3n3c2c2c([n+]3C)CCCC2)cc1,1.9 µM
4,O=c1c2ccccc2nc(/C=C/c2cc(Br)ccc2O)n1CCCO,23.9 µM
5,COc1ccc(C=NNc2nc3ccccc3s2)cc1,6.43 µM
6,N#C[C@H]1[C@H](c2ccc(-c3ccccc3F)cc2)[C@@H](CO)N1C(=O)Cc1ccccc1,3.31 µM
7,CN(C)C(=O)c1cccc(-c2ccc(C3[C@@H]4CN(Cc5nccs5)C[C@H]3N4)cc2)c1 (some centres undefined),> 68 µM (inactive)
8,CCN(CC)c1ccc(C2NC(=O)c3ccccc3N2)cc1 (centres undefined),3.8 µM
9,C[C@@H]1CN([C@@H](C)CO)C(=O)c2cc(NC(=O)c3ccccc3)ccc2O[C@@H](C)CCCCO[C@H]1CN(C)C(=O)Nc1cccc2ccccc12,0.873 µM
10,CO[C@H]1CN(C)C(=O)c2cc(NC(=O)c3ccc(Oc4ccccc4)cc3)ccc2OC[C@H](C)NC[C@@H]1C,26.5 µM
11,C[C@H](O)C#Cc1ccc2c(c1)O[C@@H](CN(C)Cc1ccc(-c3ccccc3)cc1)[C@H](C)CN([C@@H](C)CO)S2(=O)=O,6.15 µM and 8.6 µM
12,COc1cc(/C=C/C(=O)/C=C(O)/C=C/c2ccc(O)c(OC)c2)ccc1O,5.92 µM
13,C=C1C(=O)O[C@@H]2[C@H]1[C@@H](OC(=O)/C(C)=C/C)C/C(C)=C\C(=O)/C=C(\C)[C@@H]2O,8.09 µM
14,CC1(C)N=C(N)N=C(N)N1c1ccc(CCCCc2ccccc2)cc1,2.72 µM
15,O=C(O)c1ccc2cc(-c3ccccc3)[nH]c2c1,6.18 µM
16,COC(=O)COc1ccc(-c2nccc(-c3ccccn3)n2)cc1,1.5 µM
17,COc1cc2c(cc1NC(=O)CN(C)Cc1ccc(OC)c(OC)c1)oc1ccccc12,8.33 µM
18,COc1ccc(C(CCNCc2ccc(OC(C)C)cc2)C(C)C)cc1 (centres undefined),15.2 µM
19,CNC[C@H](CC1CCCCC1)NC[C@H](CO)NCCc1cccc(C(F)(F)F)c1,13.7 µM
20,S=c1[nH]nc(-c2cc(-c3ccccc3)n[nH]2)n1/N=C/C(Br)=C/c1ccccc1,10.4 µM
21,CCOc1ccc(OCc2ccc(C(=O)NN=Cc3ccc[nH]3)cc2)cc1,0.461 µM
22,Cc1sc2nc(CN3CCC(C)CC3)nc(Cl)c2c1C,63 µM
